This is an account of results in US8460867B2, “Methods of treating psychosis and schizophrenia based on polymorphisms in the CNTF gene” (Novartis AG, priority 2001, dated 2013).

The subject of test [1] is ob/ob mice. The conditions noted are these: systemic administration; cited from earlier work.
For test [2], the system named is schizophrenic patients. Put plainly: Clinical trial of Iloperidone in schizophrenic patients, pharmacogenetic analysis by CNTF 103 G>A genotype. The test is classed as in vivo, human. An excerpt: In an effort to identify genetic factors that may associate with treatment response to Iloperidone, the relationship between a polymorphism in the CNTF (ciliary neurotrophic factor) gene (located on 11q12.2, the polymorphism being 103 G>A in GenBank sequence X55890 (Version 1), see PubMed: 9285965) and the clinical response to the antipsychotic Iloperidone in a clinical trial was investigated. This trial was a randomized, double-blind, placebo- and risperidone-controlled, multicenter study to evaluate the efficacy and safety of two non-overlapping dose ranges of lloperidone (12 or 16 mg/d and 20 or 24 mg/d and risperidone (6 or 8 mg/d) compared with placebo, given twice-daily (b.i.d) for 42 days to schizophrenic patients followed by a long-term treatment phase with lloperidone given once daily (q.d) at doses of 4, 8, 12, 16, or 24 mg/d for 46 weeks to patients with schizophrenia.
Pharmacogenetic analysis for candidate gene polymorphisms was conducted in Phase II of the clinical trial. It was determined whether the CNTF (ciliary neurotrophic factor) 103 G>A polymorphism (GenBank sequence X55890 (Version 1)) 103 G>A, (expressed protein alteration FS63 TER) was associated with any of the clinical parameters of efficacy studied in the course of the clinical trial and specifically changes in the BPRSA, Total PANNS, Positive PANNS, Negative PANNS and General PANNS scales.
A total of 207 unique blood samples were collected from the patients at the trial sites. The DNA was extracted by Covance (Geneva) using the PUREGENE™ DNA Isolation Kit (D-50K). The CNTF 103 G>A polymorphism (GenBank sequence X55890 (Version 1)) polymorphism was described by Takahashi, see, Takahashi et al. Nature Genet. 7: 79-84, 1994.
The probe sets for genotyping were designed and synthesized by Third Wave Technologies, Inc (Madison, Wis.). […]

Test [3] deals with mice with diet-induced obesity. The conditions noted are these: partially resistant to leptin; cited from earlier work.
Test [4] deals with db/db mice. The settings on record: which lack a functional leptin receptor; cited from earlier work.
In test [5] the test system is pmn/pmn mice. The settings on record: also when degenerative alterations were already present; cited from earlier work.

LEP: leptin (LEP) cytokine: the “induction of the tis-11 primary response gene in the arcuate nucleus” value in test [1] is “rapid induction”.
Regarding `COc1cc(C(C)=O)ccc1OCCCN1CCC(c2noc3cc(F)ccc23)CC1` [Iloperidone], in test [2] (12-16 mg dose (Group A), analysis of variance within treatments, p<0.001), the “association of Total PANSS and BPRSA with the CNTF 103 G>A polymorphism” value is on record as “significantly associated”. For the same molecule, in test [2] (12-16 mg treatment group, GG type of the CNTF gene, p<0.001), the “response of the GG type versus the placebo” value was “highly significant”. Besides, the “treatment response (BPRSA and Total PANNS scales), GG type versus non-GG type of the CNTF gene” value in test [2] (12-16 mg treatment group, schizophrenic patients, 42 days b.i.d.) is given as “responded significantly better than the non-GG type”.

B1: CNTF: Ciliary Neurotrophic Factor, survival factor for neuronal cell types, member of the interleukin-6 cytokine family (protein, UniProt P26441 1-200, looked up)
Ciliary neurotrophic factor: MAFTEHSPLTPHRRDLCSRSIWLARKIRSDLTALTESYVKHQGLNKNINLDSADGMPVASTDQWSELTEAERLQENLQAYRTFHVLLARLLEDQQVHFTPTEGDFHQAIHTLLLQVAAFAYQIEELMILLEYKIPRNEADGMPINVGDGGLFEKKLWGLKVLQELSQWTVRSIHDLRFISSHQTGIPARGSHYIANNKKM
On to B1, for which the “induction of the tis-11 primary response gene in the arcuate nucleus” value in test [1] is given as “rapid induction”. Also, the obesity-related phenotypes result in test [3] and in test [4] was “reduced obesity-related phenotypes” in each case. In addition, the “motor function and morphologic symptoms of neural degeneration” value in test [5] is “successfully improved motor function and reduced the morphologic symptoms of neural degeneration”.
